According to ChEMBL document CHEMBL1201862, “PubChem BioAssay data set” (2004):
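Each compound was tested at five concentrations against cells in 96-well plates for 48 hours. GI50 marks 50% less growth.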 Activity calls are given as the source filed them. No stated cut-off is given here; in the data, active = GI50 up to about 1.1 µM and inactive = higher.

Tests used:
Experiment in all cases: NCI tumour cell line growth inhibition, 48 h
[1] = tested on: NCI-H460
[2] = tested on: UO-31
[3] = tested on: OVCAR-3
[4] = tested on: SW-620
[5] = tested on: NCI-H522
[6] = tested on: COLO 205
[7] = tested on: OVCAR-4
[8] = tested on: K562
[9] = tested on: Malme-3M
[10] = tested on: NCI/ADR-RES
[11] = tested on: SK-MEL-28
[12] = tested on: SK-OV-3
[13] = tested on: LOX IMVI
[14] = tested on: NCI-H23
[15] = tested on: KM12
[16] = tested on: M14
[17] = tested on: HOP-62
[18] = tested on: CAKI-1
[19] = tested on: HOP-92
[20] = tested on: A498

Measured: GI50

O=C(Nc1ccccc1F)c1cc2ccc(O)cc2o/c1=N\c1ccccc1F
inactive: [1] 2.25 µM | [2] 1.93 µM | [3] 2.1 µM | [4] 2.88 µM | [5] 1.44 µM | [6] 21.8 µM | [7] 1.85 µM | [8] 2.15 µM | [9] 1.73 µM | [10] 2.42 µM | [11] 2.45 µM | [12] 25.4 µM | [13] 2.57 µM | [14] 2.17 µM | [15] 1.98 µM | [16] 2.55 µM | [17] 2.19 µM | [18] 1.98 µM

COc1cccc(C=C(C#N)C#N)c1OC
inactive: [1] > 100 µM | [2] > 100 µM | [3] > 100 µM | [4] > 100 µM | [5] > 100 µM | [6] > 100 µM | [7] > 100 µM | [19] > 100 µM | [8] > 100 µM | [9] > 100 µM | [10] > 100 µM | [11] > 100 µM | [12] 12.3 µM | [14] > 100 µM | [15] > 100 µM | [16] > 100 µM | [17] > 100 µM | [18] > 100 µM

Cc1ccc(C(=O)NN=C(/N=N/c2cccc(C)c2)c2ccc(N(C)C)cc2)cc1
inactive: [1] > 100 µM | [2] > 100 µM | [3] > 100 µM | [4] > 100 µM | [5] > 100 µM | [6] > 100 µM | [7] > 100 µM | [19] 51.8 µM | [8] > 100 µM | [10] > 100 µM | [11] > 100 µM | [12] 64 µM | [13] > 100 µM | [14] > 100 µM | [15] > 100 µM | [16] > 100 µM | [18] > 100 µM

CC(=O)OC1C(COC(=O)c2ccccc2)OC(Nc2ncc(-c3ccc(Br)cc3)s2)C(OC(=O)c2ccccc2)C1OC(=O)c1ccccc1 (configuration not stated)
inactive: [1] > 100 µM | [2] > 100 µM | [3] > 100 µM | [4] > 100 µM | [5] > 100 µM | [6] > 100 µM | [7] > 100 µM | [19] 93.1 µM | [8] > 100 µM | [9] > 100 µM | [10] > 10 µM | [11] > 100 µM | [12] > 100 µM | [13] > 100 µM | [14] > 100 µM | [16] > 100 µM | [17] > 100 µM

CC1C[C@]2(C)C(=O)N(c3ccccc3)C(=N)[C@@H]2N(C)c2ccccc21 (some centres not stated)
inactive: [1] > 100 µM | [2] > 100 µM | [3] 70.1 µM | [4] > 100 µM | [5] > 100 µM | [6] > 100 µM | [7] > 100 µM | [20] > 100 µM | [8] > 100 µM | [9] > 100 µM | [10] > 100 µM | [11] > 100 µM | [13] > 100 µM | [14] > 100 µM | [15] > 100 µM | [16] > 100 µM | [17] > 100 µM | [18] > 100 µM

CCOC(=O)C1(C/C=C/CBr)CCc2ccccc2C1=O (configuration not stated)
inactive: [2] 14.3 µM | [4] 14.5 µM | [5] 12.6 µM | [6] 17.2 µM | [7] 13.6 µM | [20] 18.5 µM | [9] 19.1 µM | [10] 22 µM | [11] 17.5 µM | [12] 19 µM | [13] 6.37 µM | [14] 16.8 µM | [15] 15.5 µM | [16] 13.1 µM | [17] 16.2 µM | [18] 15.1 µM

COC(=O)c1c(OC(C)=O)ccc2c1c1c(OC(C)=O)c3ccccc3c(OC(C)=O)c1n2C
inactive: [1] 26.4 µM | [2] 25.1 µM | [3] 14.7 µM | [5] 12.9 µM | [6] 29.2 µM | [7] 19.4 µM | [19] 4.39 µM | [8] 19.2 µM | [9] 37.7 µM | [10] 30.1 µM | [11] 53.7 µM | [12] 16.1 µM | [14] 40.8 µM | [15] 20.5 µM | [16] 27.6 µM | [17] 24.4 µM | [18] 17.8 µM

CC1(C)Oc2ccc3c(=O)c4ccccc4oc3c2C1C(=O)O (configuration not stated)
inactive: [3] > 100 µM | [5] > 100 µM | [6] > 100 µM | [7] > 100 µM | [20] > 100 µM | [8] > 100 µM | [9] > 100 µM | [10] > 100 µM | [12] > 100 µM | [14] > 100 µM | [16] > 100 µM | [17] > 100 µM | [18] > 100 µM

Cc1c(C(=O)O)n(C)c(=O)n(C)c1=O
inactive: [1] > 100 µM | [2] > 100 µM | [3] > 100 µM | [4] > 100 µM | [5] > 100 µM | [6] > 100 µM | [7] > 100 µM | [19] > 100 µM | [20] > 100 µM | [8] > 100 µM | [9] > 100 µM | [11] > 100 µM | [12] > 100 µM | [13] > 100 µM | [14] > 100 µM | [15] > 100 µM | [16] > 100 µM | [17] > 100 µM | [18] > 100 µM

COC(=O)C12OCC34C(CC5C(C)C6=CC(=O)OC6=CC5(C)C3C(O)C1O)OC(=O)C(OC(C)=O)C24 (configuration not stated)
inactive: [1] 21.3 µM | [2] 24.4 µM | [3] 14.3 µM | [4] 9.4 µM | [5] 8.91 µM | [6] 8.07 µM | [7] 18.1 µM | [19] 16.9 µM | [20] 21.2 µM | [8] 14.7 µM | [9] 13 µM | [11] 15.5 µM | [12] 29 µM | [13] 17.6 µM | [14] 15.1 µM | [15] 16.4 µM | [16] 14.3 µM | [17] 25.8 µM | [18] 9.91 µM

COc1cc(-c2cc(CCC(=O)Nc3ccccc3[N+](=O)[O-])n(-c3ccc([N+](=O)[O-])cc3[N+](=O)[O-])n2)ccc1O
inactive: [1] > 10 µM | [2] > 10 µM | [3] > 10 µM | [4] > 10 µM | [5] > 10 µM | [6] > 10 µM | [7] > 10 µM | [19] > 10 µM | [20] > 10 µM | [8] 82.6 µM | [9] > 10 µM | [11] > 10 µM | [12] > 10 µM | [13] > 10 µM | [14] > 10 µM | [15] > 10 µM | [16] > 10 µM | [17] > 10 µM | [18] > 10 µM

O=C(c1nsc(Cl)c1Cl)N1CCCCC1
inactive: [2] 39.5 µM | [3] > 100 µM | [4] > 100 µM | [6] > 100 µM | [7] > 100 µM | [8] > 100 µM | [9] > 100 µM | [10] > 100 µM | [11] > 100 µM | [12] > 100 µM | [13] > 100 µM | [14] > 100 µM | [15] > 100 µM | [16] > 100 µM | [17] > 100 µM | [18] > 100 µM

CCN(CC)C(=O)N[C@@H](Cc1ccccc1)C(=O)NC
inactive: [1] > 100 µM | [2] > 100 µM | [3] > 100 µM | [4] > 100 µM | [5] > 100 µM | [6] > 100 µM | [7] > 100 µM | [20] > 100 µM | [8] > 100 µM | [9] > 100 µM | [10] > 100 µM | [11] > 100 µM | [12] > 100 µM | [13] > 100 µM | [14] > 100 µM | [15] > 100 µM | [16] > 100 µM | [17] > 100 µM | [18] > 100 µM

N#CSC1CCCCNC1=O (configuration not stated)
inactive: [1] 12.5 µM | [2] 15.1 µM | [3] 11.3 µM | [5] 8.09 µM | [6] 15.5 µM | [19] 2.78 µM | [8] 18.2 µM | [9] 14.4 µM | [10] 12.8 µM | [11] 13.4 µM | [12] 9.98 µM | [13] 13.5 µM | [14] 7.62 µM | [15] 14.1 µM | [16] 16.7 µM | [17] 20.6 µM | [18] 11.8 µM

O=C1C(C(c2ccccc2)N2CCOCC2)=C(O)C(c2ccccc2)N1c1ccccc1 (configuration not stated)
inactive: [1] > 10 µM | [2] > 10 µM | [3] > 10 µM | [4] > 10 µM | [5] > 10 µM | [6] > 10 µM | [20] > 10 µM | [8] > 10 µM | [9] 3.05 µM | [10] > 10 µM | [11] > 10 µM | [12] > 10 µM | [13] > 10 µM | [14] > 10 µM | [15] > 10 µM | [16] > 10 µM | [17] > 10 µM | [18] > 10 µM

COC(=O)C1(O)C(c2ccccc2)NC2(C)CCCC21 (configuration not stated)
inactive: [2] > 100 µM | [4] > 100 µM | [5] > 100 µM | [6] > 100 µM | [7] > 100 µM | [20] > 100 µM | [9] > 100 µM | [10] > 100 µM | [11] > 100 µM | [12] > 100 µM | [13] > 100 µM | [14] > 100 µM | [15] > 100 µM | [16] > 100 µM | [17] > 100 µM | [18] > 100 µM
